Measured values: US20070104750A1, “Pesticidally active compositions having enhanced activity” (priority 2005, published 2007)
Read-outs that look alike come from different tables or passages of the source.

Experiments:
[1] = test system: beet armyworm (Spodoptera exigua) larvae
[2] = Text: Determination of whether a pesticidally active ingredient is reactive with singlet oxygen can be determined from a simple singlet oxygen reactivity test, comprising irradiating a solution of a pesticidally active ingredient in the presence of a photosensitizer, e.g. methylene blue or rose bengal, with a suitable light source, e.g. a sodium lamp, whose spectral output is capable of allowing light absorption by the photo-sensitizer while bypassing the absorption band of the pesticidally active ingredient. The light source, in combination with the photosensitizer and molecular oxygen, will generate singlet oxygen. The observed degradation of the pesticidally active ingredient by a suitable analytical technique, such as HPLC, is indicative of its reaction with singlet oxygen. This test can be conducted in solvents in which singlet oxygen has a relatively long lifetime, e.g. perdeuterated versions of common solvents and carbon disulfide in order to speed the rate of reaction and thereby maximize the detectability of the degradation. Decay constants for singlet oxygen in various solvents are well known in the art and can be found in J. Phys. […] An Expanded and Revised Compilation” by Francis Wilkinson, W. Phillip Helman and Alberta B. Ross; Table 1, entitled Decay Constants for Singlet Oxygen in Various Solvents.
Confirmation of the degradation of the pesticidally active ingredient by singlet oxygen can be obtained further by adding a molecule which is capable of deactivating singlet oxygen by physical or chemical means, i.e. a singlet oxygen quencher, to the pesticidally active ingredient-photosensitizer solution. Suitable singlet oxygen quenchers include, for example DABCO (1,4-diazabicyclo[2.2.2]octane) and beta-carotene. A reduction in the rate of degradation of the pesticidally active ingredient in the presence of a singlet oxygen quencher confirms that the initial degradation was due to the reaction with singlet oxygen.
The solution was irradiated with a Philips 150 watt high pressure sodium lamp (sample was ca. 20 cm from lamp). […] The experiment was repeated with the inclusion of the singlet oxygen quencher DABCO (1.0×10^−3M, diazabicyclooctane Aldrich). A value greater than one indicates a slowing of the degradation due to singlet oxygen in the presence of the quencher.

[3] = activity enhancer alone, 1000 ppm, 9 DAT
[4] = activity enhancer alone, 10,000 ppm, 4 DAT
[5] = activity enhancer alone, 10,000 ppm, 7 DAT

C1CN2CCN1CC2 [DABCO, diazabicyclooctane]
Percent mortality ([1]; activity enhancer alone, 1000 ppm, 2 DAT): 0%
Percent mortality ([1]; activity enhancer alone, 1000 ppm, 7 DAT): 0%
Percent mortality [1, 3]: 0%

CCO[C@@H]1[C@@H](OC)[C@H](C)O[C@@H](O[C@@H]2C[C@H]3CC[C@@H]4[C@@H](C=C5C(=O)[C@H](C)[C@@H](O[C@H]6CC[C@H](N(C)C)[C@@H](C)O6)CCC[C@H](CC)OC(=O)C[C@H]54)[C@@H]3C2)[C@@H]1OC [DE-175 J, (2R,3aR,5aR,5bS,9S,13S,14R,16aS,16bR)-13-{[(2R,5S,6R)-5-(dimethylamino)-6-methyltetrahydro-2H-pyran-2-yl]oxy}-9-ethyl-14-methyl-7,15-dioxo-2,3,3a,4,5,5a,5b,6,7,9,10,11,12,13,14,15,16a,16b-octadecahydro-1H-as-indaceno[3,2-d]oxacyclododecin-2-yl 6-deoxy-3-O-ethyl-2,4-di-O-methyl-α-L-mannopyranoside]
rate constant for the degradation [2]: 0.1317 min⁻¹
kwo/kw ([2]; potential activity enhancer TEPA, weight ratio I/II 3.3:1, acetonitrile): 1.9
kwo/kw ([2]; potential activity enhancer Tryptophan, weight ratio I/II 1:1, methanol): 1.15
kwo/kw ([2]; potential activity enhancer Tryptophan, weight ratio I/II 1:10, methanol): 1.3
kwo/kw ([2]; potential activity enhancer Zein, weight ratio I/II 1:5, isopropanol(85)/water(15)): 1.0
kwo/kw ([2]; quencher DABCO, weight ratio active ingredient/DABCO 3.3:1, acetonitrile): 5.1

CC(Cc1ccc(C(C)(C)C)cc1)CN1C[C@@H](C)O[C@@H](C)C1 (stereo partly drawn) [Fenpropimorph]
kwo/kw ([2]; quencher DABCO, weight ratio active ingredient/DABCO 2.7:1, acetonitrile): 7.7

C1N2CN3CN1CN(C2)C3 [HMTA, hexamethylenetetramine]
Percent mortality [1, 3]: 4%

C=CCOC(Cn1ccnc1)c1ccc(Cl)cc1Cl (stereo not drawn) [Imazalil]
kwo/kw ([2]; quencher DABCO, weight ratio active ingredient/DABCO 2.6:1, acetonitrile): 4.4

Abamectin
kwo/kw ([2]; potential activity enhancer Zein, weight ratio I/II 1:20, isopropanol(85)/water(15)): 1.0
kwo/kw ([2]; quencher DABCO, weight ratio active ingredient/DABCO 7.8:1, acetonitrile-d3): 37.2

BSA (as 30% aqueous suspension): Bovine Serum Albumin available from Sigma
Percent mortality [1, 4]: 0%
Percent mortality [1, 5]: 0%

BSA (as 96% powder): Bovine Serum Albumin available from Sigma
Percent mortality [1, 4]: 0%
Percent mortality [1, 5]: 0%

B1: Egg albumin: Egg Albumin available from Sigma (protein, UniProt P01012 2-386, looked up)
Ovalbumin: GSIGAASMEFCFDVFKELKVHHANENIFYCPIAIMSALAMVYLGAKDSTRTQINKVVRFDKLPGFGDSIEAQCGTSVNVHSSLRDILNQITKPNDVYSFSLASRLYAEERYPILPEYLQCVKELYRGGLEPINFQTAADQARELINSWVESQTNGIIRNVLQPSSVDSQTAMVLVNAIVFKGLWEKAFKDEDTQAMPFRVTEQESKPVQMMYQIGLFRVASMASEKMKILELPFASGTMSMLVLLPDEVSGLEQLESIINFEKLTEWTSSNVMEERKIKVYLPRMKMEEKYNLTSVLMAMGITDVFSSSANLSGISSAESLKISQAVHAAHAEINEAGREVVGSAEAGVDAASVSEEFRADHPFLFCIKHIATNAVLFFGRCVSP
Percent mortality ([1]; activity enhancer alone, 1000 ppm, 3 DAT): 0%
Percent mortality ([1]; activity enhancer alone, 1000 ppm, 5 DAT): 0%
Percent mortality ([1]; activity enhancer alone, 1000 ppm, 8 DAT): 0%
